From article PMC8876231, “Analogues of Natural Chalcones as Efficient Inhibitors of AKR1C3” (Metabolites, 2022)
Several values for one entry are separate records, joined by “and”; a condition that tells them apart may be missing. Equal values may be shown once.

Tests used:
Format in all cases: biochemical
HSD17B14 = target: T1, HSD17B14 (Homo sapiens, UniProt Q9BPX1, T205S); test: HSD17B14 (S205 variant) inhibition assay (oestradiol to estrone); conditions: 10 µM compound; mean ± SD
T1 construct: His6 (own knowledge: the SGC p11 vector encodes an N-terminal His tag with TEV site); made in house; host or cells: E. coli BL21 DE3
T1 sequence (Q9BPX1 1-270 T205S): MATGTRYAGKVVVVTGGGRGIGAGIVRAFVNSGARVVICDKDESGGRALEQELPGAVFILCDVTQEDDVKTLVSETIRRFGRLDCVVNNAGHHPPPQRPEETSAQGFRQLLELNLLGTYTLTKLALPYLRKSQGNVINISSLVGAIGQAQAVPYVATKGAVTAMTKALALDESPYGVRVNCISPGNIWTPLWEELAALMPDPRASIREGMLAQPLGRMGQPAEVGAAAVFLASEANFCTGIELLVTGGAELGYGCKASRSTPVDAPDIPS
Excerpt: (§1) For enzymatic assays and inhibitor testing, all enzymes were cloned into bacterial or mammalian expression vectors. AKR1C3 and the human hydroxysteroid dehydrogenases HSD17B1, HSD17B2, HSD17B4 (SDR domain), HSD17B7, and HSD17B10 were cloned into a pGEX vector as described in [71, 72]. The coding sequences for AKR1C1, AKR1C2, and AKR1C4 were cloned by Gateway technology into the pcDNA3-N-MycDest vector according to the manufacturer’s instructions (Life Technologies, Carlsbad, CA, USA). The p11 plasmid coding for HSD17B14 (S205 variant) was a gift from Udo Opperman SGC Oxford, UK. For assays with HSD17B3, HEK293 cells stably expressing HSD17B3 were used. Enzymes were expressed in E. coli BL21 DE3 or E. coli BL21 DE3 Codon Plus RP (Stratagene, San Diego, CA, USA) or in HEK293 cells as described in [71, 72, 73]. Bacterial and cell pellets were stored at −20 °C and −80 °C, respectively, until use.
(§2) Inhibition assays were carried out as described in [71, 74]. […] For a detailed assay setup, see Supplementary Table S6. The incubation at 37 °C was stopped with 0.21 M ascorbic acid in methanol:acetic acid 99:1 (v:v) after the time needed to convert approximately 30% of the substrate in a control assay with 1% DMSO, without inhibitor candidate. Substrates and products were extracted from the reaction mixture by solid-phase extraction using C18 cartridges (Phenomenex, Aschaffenburg, Germany) and separated by RP–HPLC in a Beckman–Coulter HPLC Gold system, using the Luna 5 µm C18(2), 125 × 4.0 mm column (Phenomenex). The mobile phases used were H2O:ACN (57:43 (v:v); for assays of estrone (E1) to oestradiol (E2), E2 to E1, and ∆4-androstene-3,17-dione to testosterone conversion), H2O:ACN (49:51 (v:v); for assays of progesterone to 20α-hydroxyprogesterone conversion), and H2O:MeOH (35:65 (v:v) for assays of dihydrotestosterone (DHT) to 3α-androstanediol conversion) at a flow rate of 1 mL/min. Radioactivity was detected by online scintillation counting by using a radioactivity monitor (LB506D, Berthold Technologies, Bad Wildbad, Germany). Conversion of substrates to products was determined by integration of the peak area of the substrate and product peaks in percent. For calculation of inhibition, the conversion of control assay (assay without inhibitor) was set to 0% inhibition. All assays were run in triplicates, and mean values ± SD are reported.
(§3) Table S6: Activity assay setup […]
(§4) E1: estrone; E2: 17β-estradiol, A: Δ4-androstene-3,17-dione; T: testosterone, P: progesterone, 20αOHP: 20α-hydroxyprogesterone, DHT: dihydrotestosterone, 3α-Adiol: 3α-androstanediol, NaPi: 100 mM Na-phosphate buffer; PI: C0mplete protease inhibitor (Roche);. E.coli - Expression in E.coli BL21 DE3 Codon Plus RP except E.coli BL21 DE3 […]
(§5) application to antiparasitic and natural product synthesis. Eur J Org Chem […]
(§6) Synthesis of Xanthohumol analogues and discovery of potent thioredoxin reductase inhibitor as potential anticancer agent. J Med Chem 2015, 58,

HSD17B3 = target: T2, HSD17B3 (Homo sapiens, UniProt P37058); test: HSD17B3 inhibition assay (∆4-androstene-3,17-dione to testosterone, HEK293 stably expressing HSD17B3); conditions: 10 µM compound; mean ± SD
T2 construct: expressed in transfected cells
T2 sequence (P37058 1-310): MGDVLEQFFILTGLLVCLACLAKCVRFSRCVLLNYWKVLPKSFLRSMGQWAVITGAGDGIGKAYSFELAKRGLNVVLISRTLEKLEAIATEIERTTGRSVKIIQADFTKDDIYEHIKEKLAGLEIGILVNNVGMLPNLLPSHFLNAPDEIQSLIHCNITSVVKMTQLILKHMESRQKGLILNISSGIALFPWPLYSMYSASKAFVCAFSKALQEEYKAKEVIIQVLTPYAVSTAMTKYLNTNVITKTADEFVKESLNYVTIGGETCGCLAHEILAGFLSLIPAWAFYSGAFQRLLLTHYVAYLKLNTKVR
Excerpt: as §1, §2, §3, §4, §5, §6

HSD17B7 = target: T3, HSD17B7 (Homo sapiens, UniProt P56937); test: HSD17B7 inhibition assay (estrone to oestradiol); conditions: 10 µM compound; mean ± SD
T3 construct: GST (own knowledge: pGEX vectors encode N-terminal GST); made in house; host or cells: E. coli BL21 DE3 Codon Plus RP
T3 sequence (P56937 1-341): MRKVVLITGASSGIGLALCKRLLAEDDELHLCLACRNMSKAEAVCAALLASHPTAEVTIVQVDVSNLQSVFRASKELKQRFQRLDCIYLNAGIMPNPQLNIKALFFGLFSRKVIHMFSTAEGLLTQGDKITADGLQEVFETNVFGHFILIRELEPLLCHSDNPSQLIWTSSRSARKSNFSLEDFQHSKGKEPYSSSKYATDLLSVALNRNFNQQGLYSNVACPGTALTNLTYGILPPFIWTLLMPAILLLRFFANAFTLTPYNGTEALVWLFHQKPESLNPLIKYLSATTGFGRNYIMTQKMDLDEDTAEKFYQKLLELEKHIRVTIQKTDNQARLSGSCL
Excerpt: as §1, §2, §3, §4, §5, §6

AKR1C3 = target: T4, AKR1C3 (Homo sapiens, UniProt P42330); test: AKR1C3 enzymatic inhibition assay (∆4-androstene-3,17-dione to testosterone); conditions: for IC50: one-site ligand binding fit
T4 construct: GST (own knowledge: pGEX vectors encode N-terminal GST); made in house; host or cells: E. coli BL21 DE3 Codon Plus RP, lysate
T4 sequence (P42330 1-323): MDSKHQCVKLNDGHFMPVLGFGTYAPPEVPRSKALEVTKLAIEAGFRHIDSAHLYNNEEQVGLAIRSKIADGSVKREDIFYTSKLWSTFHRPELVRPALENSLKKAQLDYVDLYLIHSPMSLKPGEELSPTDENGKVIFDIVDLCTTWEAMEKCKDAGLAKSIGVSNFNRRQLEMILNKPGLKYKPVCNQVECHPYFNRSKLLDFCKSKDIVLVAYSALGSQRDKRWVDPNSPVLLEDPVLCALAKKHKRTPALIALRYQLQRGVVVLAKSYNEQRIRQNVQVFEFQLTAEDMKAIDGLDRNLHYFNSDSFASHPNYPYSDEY
Excerpt: as §1, §2
For the determination of IC50 values, percent inhibition values were fitted using the Enzyme Kinetics module of SigmaPlot 13.0 and the one-site ligand-binding model according to the formula f = Bmax * abs(x)/(Kd + abs(x)).
as §3, §4, §5, §6

[1] = 10 µM compound, ∆4-androstene-3,17-dione reduction, triplicates, mean ± SD, 10 µM
[2] = ∆4-androstene-3,17-dione reduction, mean ± SD
[3] = 10 µM compound, ∆4-androstene-3,17-dione reduction, triplicates, mean ± SD

Row | Structure (SMILES) | Inhibition of HSD17B14 at 10 µM in % (HSD17B14) [%] | Inhibition of HSD17B3 at 10 µM in % (HSD17B3) [%] | Inhibition of HSD17B7 at 10 µM in % (HSD17B7) [%] | AKR1C3 Inhibition at 10 µM [%] (AKR1C3; [1]) | IC50 (AKR1C3; [2]) [nM] | inhibition at 10 µM (HSD17B14) [%] | inhibition at 10 µM (HSD17B3) [%] | inhibition at 10 µM (HSD17B7) [%] | inhibition at 10 µM (AKR1C3; [3]) [%] | Fold more active than natural chalcone 18 (AKR1C3) (AKR1C3; compared with chalcone 18) [fold] | AKR1C3 Inhibition at 10 µM [%] (AKR1C3; [3])
1 | COc1ccc(/C=C/C(=O)c2c(O)cc(O)cc2O)cc1 [Compound 19] | 1.8 ± 7.7 | 41.8 ± 3.3 | 4.6 ± 4.4 | > 75% and 78.1 ± 2.7% | 2360 ± 540 |  |  |  |  |  | 
2 | COc1ccc(/C=C/C(=O)c2c(O)cc(O)cc2OC)cc1 [Compound 18] | 24.9 ± 8.1 | 24.8 ± 4.8 | 6.5 ± 6.7 | 47.3 ± 6.4% | 11900 ± 2030 |  |  |  |  |  | 
3 | Cc1ccc(/C=C/C(=O)c2c(O)cc(O)cc2O)cc1 [Compound 21] | -8.0 ± 2.3 | 52.7 ± 6.7 | 6.8 ± 4.7 | > 75% and 87.9 ± 4.9% | 5180 ± 1640 |  |  |  |  |  | 
4 | O=C(/C=C/c1ccc(Cl)cc1Cl)c1c(O)cc(O)cc1O [Compound 23, 2,4-dichloro-2′,4′,6′-trihydroxychalcone] |  |  |  |  | 1080 ± 270 | 13.9 ± 2.7 | 68.6 | 9.9 ± 4.7 | 90.9 ± 4.6 | 10 | 
5 | Cc1cccc(/C=C/C(=O)c2c(O)cc(O)cc2O)c1 [Compound 20] | 18.5 ± 9.3 | 55.9 ± 4.1 | 3.8 ± 3.5 | > 75% and 89.2 ± 6.3% | 1940 ± 320 |  |  |  |  |  | 
6 | COc1cc(O)cc(O)c1C(=O)/C=C/c1ccc(Cl)cc1Cl [Compound 25] | -3.2 ± 6.3 | 20.9 ± 8.0 | 37.7 ± 11.4 |  |  |  |  |  |  |  | 33.3 ± 6.0
